Experimental data published in PubChem BioAssay (NCI).
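Cultured in 96-well plates, cells were exposed to test compound for 48 hours across five concentrations. TGI denotes the concentration required for complete inhibition of growth.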

Assays:
Assay in all cases: NCI tumour cell line growth inhibition, 48 h
[1] = test system: MOLT-4 leukemia
[2] = test system: KM12 colon
[3] = test system: RPMI-8226 leukemia
[4] = test system: HCT-116 colon
[5] = test system: U251 CNS
[6] = test system: SNB-19 CNS
[7] = test system: SR leukemia
[8] = test system: A549 NSCLC
[9] = test system: SF-295 CNS
[10] = test system: SK-MEL-28 melanoma
[11] = test system: EKVX NSCLC
[12] = test system: HT29 colon
[13] = test system: SK-OV-3 ovarian
[14] = test system: SK-MEL-2 melanoma
[15] = test system: HOP-62 NSCLC
[16] = test system: MCF7 breast
[17] = test system: LOX IMVI melanoma
[18] = test system: UACC-62 melanoma
[19] = test system: OVCAR-3 ovarian
[20] = test system: MDA-MB-435

SMILES | TGI [1] [µM] | TGI [2] [µM] | TGI [3] [µM] | TGI [4] [µM] | TGI [5] [µM] | TGI [6] [µM] | TGI [7] [µM] | TGI [8] [µM] | TGI [9] [µM] | TGI [10] [µM] | TGI [11] [µM] | TGI [12] [µM] | TGI [13] [µM] | TGI [14] [µM] | TGI [15] [µM] | TGI [16] [µM] | TGI [17] [µM] | TGI [18] [µM] | TGI [19] [µM] | TGI [20] [µM]
Cc1occc1C(=S)Nc1ccc(Cl)c(C(=O)OC(C(C)C)C(C)C)c1 | 23.1 | 29.9 | 29.6 | 24.5 | 34.1 | 58.4 | 28 | 31.8 | 18.5 | 29.8 | 27.3 | 33.5 | 53.2 | 38.4 | 42.3 | 34 | 26.3 | 25.7 | 28.3 | 65.8
COc1cccc2c1CCc1cc3c(N)nc(N)nc3nc1-2 | > 100 | 37.5 | > 100 | 8.09 | > 38.3 | 26.7 | > 34.5 | 7.69 | 9.91 | 11 | 15.3 | 17.3 | 40.3 | 33.9 | 20.1 | 47.9 | 3.34 | 16.7 | 16 | 27.4
COC(=O)c1ccccc1C1CN=NC12Cc1ccccc1C2=O (stereo not given) | > 100 | > 100 | > 100 | > 100 | > 100 | > 100 | > 100 | > 100 | > 100 | > 100 | > 100 | > 100 | > 100 | > 100 | > 100 | > 100 | > 100 | > 100 | > 100 | > 100
Cc1cccc2c1C(=O)[C@](C)([C@]1(C)Nc3cccc(C)c3C1=O)N2 | 72.6 | > 100 | 53.7 | > 100 | > 100 | > 100 | 93.5 | > 100 | 68.9 | > 100 | 71.7 | > 100 | 76.6 | 69.2 | 84.9 | > 100 | > 100 | > 100 | 83.3 | 35.7
CCCCCCc1ccc(C(=O)NO)cc1 | 50 | > 100 | 56.8 | > 100 | > 100 | > 100 | 39.2 | > 100 | > 100 | > 100 | > 100 | > 100 | > 100 | > 100 | > 100 | > 100 | 76.9 | 66.6 | > 100 | > 100
O=C(c1c(F)c(F)c(F)c(F)c1F)N1CCN(C(=O)c2c(F)c(F)c(F)c(F)c2F)C1=S | 11.4 | 18.8 | > 100 | 7.72 | 22.2 | 30.1 | > 100 | 29.5 | 28.5 | 14.9 | 32.9 | 12.9 | 21.6 | 7.33 | 29.1 | 21.1 | 6.57 | 9.33 | 12 | 11.9
O=C(O)C1CCCCC1C(=O)Nn1cnnc1 (stereo not given) | > 100 | > 100 | > 100 | > 100 | > 100 | > 100 | > 100 | > 100 | > 100 | > 100 | > 100 | > 100 | > 100 | > 100 | > 100 | > 100 | > 100 | > 100 | > 100 | > 100
COC(=O)[C@]12CC[C@H]3CC[C@H]([C@H]31)[C@H](c1ccccc1)N2 | 56.5 | 39.8 | 47.9 | 29.5 | 31.4 | 47.3 | 38.8 | 37.3 | 32.3 | 52.2 | 33.1 | 29.5 | 77.7 | 28.8 | 33.3 | 31.2 | 32.1 | 29.1 | 29.3 | 34.6
CCn1c(SCC(=O)N/N=C/c2ccccc2)nc2ccccc2c1=O | > 100 | > 68.8 | > 100 | > 100 | > 70.9 | 71.3 | 5.34 | > 46.4 | 33.1 | > 100 | > 100 | > 100 | 27.1 | > 46.4 | > 78.3 | > 46.4 | > 100 | 52.1 | > 100 | 17.6
O=C1c2ccccc2CN1c1ccc(OCCN2CCCCC2)cc1 | > 10 | > 10 | > 10 | > 10 | > 10 | > 10 | > 10 | > 10 | > 10 | > 10 | > 10 | > 10 | > 10 | > 10 | > 10 | > 10 | > 10 | > 10 | > 10 | > 10
N#CC(C#N)=C/C=C(\Sc1c(Cl)c(Cl)nc(Cl)c1Cl)c1ccc(Cl)cc1 | > 100 | 51.5 | > 100 | 34.8 | 33.3 | 43 | 68.8 | > 100 | 44.9 | 49.7 | > 100 | > 100 | 58.9 | > 100 | 96.6 | > 100 | 20.5 | 30 | 27.3 | 20.3
CCOC(=O)CCC(NC(=O)c1ccc(Oc2nc3ccccc3nc2-c2ccccc2)cc1)C(=O)OCC (stereo not given) | > 100 | > 100 | > 100 | > 49.3 | > 94 | > 77 | > 100 | > 100 | > 60.7 | > 100 | > 100 | 10.7 | > 67.6 | > 93 | 45.1 | > 100 | > 100 | > 100 | > 64.8 | > 100
CN(C)CCCn1c(Cc2ccc(Cl)cc2)nc2cc(C(F)(F)F)ccc21 | 34.5 | 28.1 | > 100 | 25 | 28.6 | 30.8 | > 100 | 32.8 | 31.4 | 33.5 | 32.7 | 29.8 | 28.2 | 31 | 28.8 | 27.6 | 29.7 | 31.2 | 27.6 | 26.6
NC(=O)c1cc2ccc(O)cc2o/c1=N/NC(=O)c1ccccc1 | > 100 | > 100 | > 100 | > 100 | > 100 | > 100 | > 100 | > 100 | > 100 | > 100 | > 100 | > 100 | > 100 | 91.8 | > 100 | > 100 | > 100 | > 100 | > 100 | > 100
